Experiment [1] has as its target T1, rat CB2 receptor (rCB2) (Rattus norvegicus, UniProt Q9QZN9).
T1 construct: expressed in transfected cells; host or cells: CHO-K1 (plasmid pcDNA3.1)
T1 sequence (Q9QZN9 1-360): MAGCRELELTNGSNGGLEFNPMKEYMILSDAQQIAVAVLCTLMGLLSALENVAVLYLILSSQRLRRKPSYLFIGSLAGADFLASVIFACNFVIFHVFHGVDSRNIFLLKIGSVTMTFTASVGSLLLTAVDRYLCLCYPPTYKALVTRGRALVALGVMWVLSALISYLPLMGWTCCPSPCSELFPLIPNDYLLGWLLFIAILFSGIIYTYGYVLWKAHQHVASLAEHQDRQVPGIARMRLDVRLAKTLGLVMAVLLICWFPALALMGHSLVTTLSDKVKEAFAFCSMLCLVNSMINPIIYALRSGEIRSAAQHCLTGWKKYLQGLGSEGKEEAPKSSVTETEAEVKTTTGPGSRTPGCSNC
The experiment is described as follows: cAMP assay (LANCE TR-FRET) in CHO-K1 cells expressing rat CB2. It counts as cell-based. Here is the method: (§1) The ability of compounds to act as agonists or inverse agonists at human CB2 and CB1 receptors (hCB2, hCB1, respectively) and at the rat CB2 receptor (rCB2) was determined by measuring changes in intracellular cAMP levels. Chinese Hamster Ovary (CHO-K1) cell lines stably expressing hCB2 (Genebank: X74328) or hCB1 (Genebank: X54937) were purchased from Euroscreen (Gosselies, Belgium). The rat CB2 receptor was expressed from genomic DNA (provided by M. Abood, California Pacific Medical Center) in CHO-K1 cells from expression plasmid vector, pcDNA3.1.
(§2) Receptor mediated responses were determined by measuring changes in intracellular cAMP using LANCE cAMP detection kit (cat #AD0264, Perkin Elmer, Wellesley, Mass.) based on time-resolved fluorescence resonance energy transfer (TR-FRET).
(§3) On the day of the experiment, cells were spun at low speed for 5 min at room temperature. […] Cell clumps were removed by filtering through cell strainer 40 μm (BD Falcon, Discovery Labware, Bedford, Mass.) and diluted to 2×10^5 cells/mL. Antibody supplied with the LANCE cAMP immunoassay kit was then added according to the manufacturer's instructions. An aliquot of cells was taken for un-induced controls. […] Cells were then incubated for 30 min at room temperature prior to adding to Proxiplates containing test compounds (final DMSO concentration was less than 0.5%) with a Multidrop bulk dispenser, followed by a sixty minute incubation at room temperature. The response was stopped by addition of the detection mix supplied with the LANCE kit. The reagents were allowed to equilibrate for three hours prior to reading on an Envision multi-mode detector (Perkin-Elmer). TR-FRET was measured using a 330-380 nm excitation filter, a 665 nm emission filter, dichroic mirror 380 nm and Z=1 mm. Cyclic AMP concentrations in each well were back-calculated from a cAMP standard curve run concurrently during each assay. Each plate contained 16 wells of forskolin stimulated cells and 16 wells of forskolin plus CP55,940-treated cells. […] Concentrations of cAMP were expressed as a percent of the difference of these two groups of wells.

In experiment [2] the target is T2, human CB2 receptor (hCB2) (Homo sapiens, UniProt P34972).
T2 construct: host or cells: CHO-K1
The experiment is described as follows: cAMP assay (LANCE TR-FRET) in CHO-K1 cells stably expressing hCB2. It counts as cell-based. The protocol: as §1, §2, §3
(In general: Changes in cAMP serve as a functional read-out for many G protein-coupled receptors.)

The target in experiment [3] is human CB1 receptor (hCB1) (Homo sapiens, UniProt P21554). The experiment is described as follows: cAMP assay (LANCE TR-FRET) in CHO-K1 cells stably expressing hCB1. Type of experiment: cell-based. The protocol: as §1, §2, §3
Experiment [4] concerns acetic acid-induced writhing. The experiment is described as follows: Inhibition of acetic acid-induced writhing in mice. It counts as in vivo, Male ICR mice. Particulars: dose of 10 mg/kg, subcutaneous, 30 min before acetic acid; writhes over 15 min. From the text: 12: 525-562; Ramabadran and Bansinath (1986) Pharm. Res. 3: 263-270]. Intraperitoneal administration of dilute acetic acid solution causes a writhing behavior in mice. A writhe is defined as a contraction of the abdominal muscles accompanied by an extension of the forelimbs and elongation of the body. The number of writhes observed in the presence and absence of test compounds is counted to determine the analgesic activity of the compounds.
Male ICR mice, 20-40 grams in weight, were weighed and placed in individual observation chambers (usually a 4000 ml beaker) with a fine layer of rodent bedding at the bottom. To determine the activity and potency of test compounds, different doses of the compound solution or vehicle were injected subcutaneously in the back of the neck 30 minutes prior to administration of acetic acid solution. After administration of the compound or vehicle control, mice were returned to their individual observation chambers awaiting the intraperitoneal administration of acetic acid solution. Thirty minutes later, 10 ml/kg of a 0.6% (v/v) acetic acid solution was then injected into the right lower quadrant of the abdomen. Immediately after the injection, the mouse was returned to its observation chamber and the recording of the number of writhes is begun immediately. The number of writhes was counted over a 15-min period starting from the time of acetic acid injection. Raw data were analyzed using a one-way ANOVA followed by Dunnett's post-tests.
For dose-response analysis, raw data were converted to % maximum possible effect (% MPE) using the formula: % MPE=((Wc−Wv)/(0−Wv))×100, where Wc is the number of writhes in compound-treated mice and Wv is the mean number of writhes in vehicle-treated mice. The dose which elicited 50% attenuation of hypersensitivity (ED50) was determined using linear regression analysis. (Tallarida & Murray, 1987).
In general terms: An intraperitoneal irritant provokes the stretching counted in writhing tests.

The subject of experiment [5] is CFA-induced thermal hyperalgesia. The experiment is described as follows: CFA model of acute inflammation: thermal hyperalgesia (paw withdrawal latency). Particulars: for Attenuation (sec.) of CFA-induced thermal hyperalgesia (mean PWL ± SEM): p.o., vehicle 4.3 ± 0.2, naive 10.3 ± 0.3. Type of experiment: in vivo, Male Sprague-Dawley rats. Here is the method: The anti-hyperalgesic effects of test compounds in the Complete Freund's Adjuvant (CFA) model of inflammatory pain were examined as described below. Male Sprague-Dawley rats (Hsd:Sprague-Dawley®™SD®™, Harlan, Indianapolis, Ind.) weighing about 200 grams, were housed three per cage. Test compound and ibuprofen (Sigma, cat 11892) were each prepared in a mixture of 1:1:18 ethanol:cremophor EL:water. Groups of six animals were subjected to local inflammation induced by 0.1 mL CFA (Sigma-Aldrich, cat F5881, Mycobacterium tuberculosis 1 mg/ml) injected subcutaneously into the plantar surface of the left paw.
Assessment of thermal hyperalgesia: Paw withdrawal latencies (PWLs) in response to a noxious thermal stimulus (Model #37370, Ugo Basile, Cat #55370) were obtained before and 24 hours after intraplantar administration of CFA. Rats were placed in plexi-glass chambers (10×21×14 cm) on top of a glass platform (un-heated) and allowed to acclimate for approximately 15 min before testing. Each rat received 3 trials separated by approx. 3 min each and these scores were averaged to provide the final PWL. The mean and standard error of the mean (SEM) were determined for the injured paw in each treatment group. Significant reductions in PWLs (i.e., increased sensitivity to a noxious stimulus) were interpreted as the presence of thermal hyperalgesia. To avoid tissue damage, a cut-off latency of 20 seconds was employed. These behavioral assessments were carried-out under blinded conditions (i.e., compound preparation and animal dosing was performed by someone other than the person carrying out the behavioral assessments). Ibuprofen (100 mg/kg, p.o.) was used as the positive control. The mean and SEM were determined for the injured and normal paws for each treatment group. CFA produces a significant increase in sensitivity to noxious thermal stimuli as PWLs decreased from a pre-CFA baseline of 10.3±0.3 sec to a value of 4.3±0.2 sec (p≦0.05, paired t-test). […] Compound 1-10 at a dose of 3 mg/kg produced a significant increase in PWLs (p<0.01, Bonferroni post-test) that persisted for at least 4 hours post-dosing.

The structures appear in SMILES notation. pEC50: −log10 of the molar value. Like-named read-outs stand apart in the source and are kept apart here. Where only a bound is given, the exact number is not on record here.

Chain of human CB1 receptor (hCB1) (P21554 whole entry): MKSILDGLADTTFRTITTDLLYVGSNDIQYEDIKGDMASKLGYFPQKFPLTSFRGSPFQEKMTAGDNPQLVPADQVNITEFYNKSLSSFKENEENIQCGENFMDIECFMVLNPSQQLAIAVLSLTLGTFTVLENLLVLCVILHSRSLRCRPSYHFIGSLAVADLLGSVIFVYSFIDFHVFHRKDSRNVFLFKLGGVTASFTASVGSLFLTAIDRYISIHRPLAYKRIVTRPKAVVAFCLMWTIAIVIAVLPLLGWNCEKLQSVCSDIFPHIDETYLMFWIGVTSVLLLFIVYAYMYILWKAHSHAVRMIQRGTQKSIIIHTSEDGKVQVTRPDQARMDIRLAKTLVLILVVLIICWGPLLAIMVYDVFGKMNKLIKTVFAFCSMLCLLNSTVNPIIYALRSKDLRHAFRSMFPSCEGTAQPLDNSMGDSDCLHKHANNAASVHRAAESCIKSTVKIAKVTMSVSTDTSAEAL
T2 sequence (P34972 whole entry): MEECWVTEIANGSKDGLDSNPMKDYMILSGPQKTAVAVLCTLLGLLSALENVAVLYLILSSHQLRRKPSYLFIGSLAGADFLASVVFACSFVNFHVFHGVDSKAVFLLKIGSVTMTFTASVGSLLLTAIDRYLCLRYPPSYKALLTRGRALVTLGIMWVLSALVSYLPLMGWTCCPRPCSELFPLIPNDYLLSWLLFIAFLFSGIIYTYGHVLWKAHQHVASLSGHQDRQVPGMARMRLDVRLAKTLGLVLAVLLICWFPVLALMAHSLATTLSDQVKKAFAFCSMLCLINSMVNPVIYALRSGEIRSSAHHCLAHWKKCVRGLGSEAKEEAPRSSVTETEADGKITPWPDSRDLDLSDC

Consider `CNC(=O)[C@@H](NC(=O)c1nc(-c2ccccc2)n2c1CCN(S(=O)(=O)c1ccc(F)cc1)CC2)C(C)(C)C` [Compound 3-15, (S)-N-(3,3-dimethyl-1-(methylamino)-1-oxobutan-2-yl)-7-(4-fluorophenyl-sulfonyl)-3-phenyl-6,7,8,9-tetrahydro-5H-imidazo[1,5-d][1,4]diazepine-1-carboxamide], for which the pEC50 in experiment [1] was 8.00 to 10.00.

Turning to `CNC(=O)[C@@H](NC(=O)c1nc(-c2ccccc2)n2c1CCCCC2)C(C)(C)C` [Compound 1-1, (S)—N-(3,3-dimethyl-1-(methylamino)-1-oxobutan-2-yl)-3-phenyl-6,7,8,9-tetrahydro-5H-imidazo[1,5-a]azepine-1-carboxamide], the pEC50 was 8.00 to 10.00 in experiment [2] and 7.00 to 8.00 in experiment [3]. The “% maximum possible effect (% MPE), writhing” value in experiment [4] is “greater than fifty”.

For the compound `CNC(=O)[C@@H](NC(=O)c1nc(-c2ccccc2)n2c1CCN(C(C)=O)CC2)C(C)(C)C` [Compound 3-12, (S)-7-acetyl-N-(3,3-dimethyl-1-(methylamino)-1-oxobutan-2-yl)-3-phenyl-6,7,8,9-tetrahydro-5H-imidazo[1,5-d][1,4]diazepine-1-carboxamide], the pEC50 in experiment [2], in experiment [3] and in experiment [1] was less than 5.00 in each case.

`CNC(=O)[C@@H](NC(=O)c1nc(-c2ccc(F)c(F)c2)n2c1COCCC2)C(C)(C)C` [Compound 1-10, (S)-3-(3,4-difluorophenyl)-N-(3,3-dimethyl-1-(methylamino)-1-oxobutan-2-yl)-5,6,7,9-tetrahydroimidazo[5,1-c][1,4]oxazepine-1-carboxamide]: the pEC50 in experiment [2] and in experiment [3] was 7.00 to 8.00 in each case. The “Persistence of significant increase in PWLs post-dosing” value in experiment [5] (3 mg/kg p.o., p<0.01, Bonferroni post-test) was “at least 4 hours”. Further, the “Attenuation (sec.) of CFA-induced thermal hyperalgesia (mean PWL ± SEM)” value in experiment [5] (3 mg/kg, 1 hr) came out at 6.5 ± 0.5 s; in experiment [5] (3 mg/kg, 4 hr) it was 6.3 ± 0.3 s. Moreover, the “Reversal of CFA-induced thermal hyperalgesia” value in experiment [5] (oral (p.o.) administration) is “significant reversal”.

In the case of `Cc1nnc(-c2nc(-c3ccc(F)c(F)c3)n3c2CCCCC3)o1` [Compound 4-1, 2-(3-(3,4-difluorophenyl)-6,7,8,9-tetrahydro-5H-imidazo[1,5-a]azepin-1-yl)-5-methyl-1,3,4-oxadiazole], the pEC50 in experiment [2] (text statement b297, read-out: EC50 human CB2 receptor) was less than 5.00; in experiment [1] (above the detectable range, read-out: EC50 rat CB2 receptor), less than 5.00.

In the case of `CNC(=O)[C@@H](NC(=O)c1nc(-c2ccccc2)n2c1CCN(C)CC2)C(C)(C)C` [Compound 3-9, (S)-N-(3,3-dimcthyl-1-(methylamino)-1-oxobutan-2-yl)-7-methyl-3-phenyl-6,7,8,9-tetrahydro-5H-imidazo[1,5-d][1,4]diazepine-1-carboxamide], the pEC50 in experiment [2], in experiment [3] and in experiment [1] was less than 5.00 in each case.

On to `CNC(=O)[C@@H](NC(=O)c1nc(-c2ccccc2)n2c1CCN(CC1CC1)CC2)C(C)(C)C` [Compound 3-11, (S)-7-(cyclopropylmethyl)-N-(3,3-dimethyl-1-(methylamino)-1-oxobutan-2-yl)-3-phenyl-6,7,8,9-tetrahydro-5H-imidazo[1,5-d][1,4]diazepine-1-carboxamidc], for which the pEC50 in experiment [2] was less than 5.00; in experiment [3], less than 5.00; in experiment [1], 8.00 to 10.00.

Regarding `CCS(=O)(=O)N1CCc2c(C(=O)N[C@H](C(=O)NC)C(C)(C)C)nc(-c3ccccc3)n2CC1` [Compound 3-14, (S)-N-(3,3-dimethyl-1-(methylamino)-1-oxobutan-2-yl)-7-(ethylsulfonyl)-3-phenyl-6,7,8,9-tetrahydro-5H-imidazo[1,5-d][1,4]diazepine-1-carboxamide], the negative-log EC50 (pEC50) in experiment [2] is less than 5.00; in experiment [3], less than 5.00; in experiment [1] it was 7.00 to 8.00.

In turn, `CNC(=O)[C@@H](NC(=O)c1nc(-c2ccccc2)n2c1CCN(CC(C)C)CC2)C(C)(C)C` [Compound 3-10, (S)-N-(3,3-dimethyl-1-(methylamino)-1-oxobutan-2-yl)-7-isobutyl-3-phenyl-6,7,8,9-tetrahydro-5H-imidazo[1,5-d][1,4]diazepine-1-carboxamide] gave a negative logarithm of the EC50 (pEC50) in experiment [1] of 7.00 to 8.00.

As for `CC(C)Cc1ccc(C(C)C(=O)O)cc1` (stereo not shown) [Ibuprofen, reference compound], the “Attenuation (sec.) of CFA-induced thermal hyperalgesia (mean PWL ± SEM)” value was determined as 7.6 ± 0.7 s in experiment [5] (100 mg/kg, 1 hr) and 7.7 ± 0.6 s in experiment [5] (100 mg/kg, 4 hr).

In experiment [1], `CNC(=O)[C@@H](NC(=O)c1nc(-c2ccccc2)n2c1CCNCC2)C(C)(C)C` [Compound 3-8, (S)-N-(3,3-dimethyl-1-(methylamino)-1-oxobutan-2-yl)-3-phenyl-6,7,8,9-tetrahydro-5H-imidazo[1,5-d][1,4]diazepine-1-carboxamide] gave a negative-log EC50 (pEC50) of 7.00 to 8.00.

The term pEC50 denotes the negative decadic logarithm of the EC50, by convention in mol/L.

These data come from patent US8835422B2, “Substituted imidazoheterocycle derivatives” (Cara Therapeutics, Inc., priority 2008, dated 2014).
